Converted amounts (≈) assume the structure as drawn.

Assay [1] addresses Protein farnesyltransferase (Homo sapiens, UniProt P49354+P49356). The assay is described as follows: Inhibition of mammalian Farnesyltransferase. The format is protein-complex assay.
The target in assay [2] is Protein farnesyltransferase (Mus musculus, UniProt Q61239+Q8K2I1). The assay is described as follows: Inhibition of mammalian H-Ras processing in NIH 3T3 cells. The class given is functional, cell-based, NIH3T3.
In assay [3] the test system is Plasmodium falciparum. The experiment in a line: Growth inhibition of Plasmodium falciparum 3D7 infected red blood cells. Conditions: read-out: ED50 (the source's name). The format is functional.
In assay [4] the test system is Plasmodium falciparum. The experiment in a line: Percent growth inhibition of Plasmodium falciparum 3D7 in erythrocytes at 20 uM. The format is functional.
Assay [5] relates to Plasmodium falciparum. The experiment in a line: Inhibition of Plasmodium falciparum 3D7 infected red blood cells. The class given is functional. Conditions: read-out: ED50 (the source's name).

By IC50 is commonly meant the midpoint of a concentration-inhibition curve. High values mean weaker potency in that assay, low ones greater potency in that assay. A word on the inhibition: it is the percentage by which the read-out fell short of the control. A low value points to a weak effect. As for `COC(=O)[C@H](CCSC)NC(=O)c1ccc(CNCc2c[nH]cn2)cc1-c1ccccc1C`, the IC50 in assay [1] was 34000 nM; in assay [2], 20 nM. Further, the EC50 in the assay with Plasmodium falciparum [3] was determined as 2 µg/mL (≈ 4.29 µM). The inhibition at 20 µM with Plasmodium falciparum [4] was 99%.

As for `N#Cc1ccc(Cn2cncc2CNc2ccc(C(=O)NCc3ccccc3)c(-c3ccccc3)c2)cc1`, in assay [1], inhibition was half-maximal at 640 nM (IC50). For the same compound, the EC50 in the assay on Plasmodium falciparum [3] turned out to be 4 µg/mL (≈ 8.04 µM).

On to `CSCC[C@H](NC(=O)c1ccc(NCc2cncn2Cc2ccc(C#N)cc2)cc1-c1ccccc1)C(=O)O`, for which the IC50 was determined as 7.2 nM in assay [1] and 5000 nM in assay [2]. Further, the EC50 with Plasmodium falciparum [3] came out at 13 µg/mL (≈ 24.1 µM). The compound further came in with an inhibition at 20 µM in the assay with Plasmodium falciparum [4] of 86.3%.

For `CSCC[C@H](NC(=O)c1ccc(NCc2cn(Cc3cccc4ccccc34)cn2)cc1-c1ccccc1)C(=O)O`, the IC50 was 3000 nM in assay [1] and greater than 100000 nM in assay [2]. Further, the EC50 with Plasmodium falciparum [3] was determined as 10 µg/mL (≈ 17.7 µM). The same compound returned an inhibition at 20 µM in the assay with Plasmodium falciparum [4] of 19.4%.

For the compound `N#Cc1ccc(Cn2cncc2CNc2ccc(C(=O)NCC3CCCCC3)c(-c3ccccc3)c2)cc1`, the results for the IC50 in assay [1] and in assay [2] were 3100 nM and greater than 100000 nM, respectively. Also, the EC50 in the assay on Plasmodium falciparum [3] stood at 3 µg/mL (≈ 5.96 µM).

Turning to `CSCC[C@H](NC(=O)c1ccc(NCc2cn(Cc3ccc(-c4ccccc4)cc3)cn2)cc1-c1ccccc1)C(=O)O`, the figures for the IC50 in assay [1] and in assay [2] were 6000 nM and greater than 100000 nM, respectively. In addition, in the assay on Plasmodium falciparum [3], the EC50 is 12 µg/mL (≈ 20.3 µM).

Turning to `CSCC[C@H](NC(=O)c1ccc(NCc2cn(CC3CCCCC3)cn2)cc1-c1ccccc1)C(=O)O`, half-maximal inhibition in assay [1] (IC50) was put at 780 nM. The EC50 in the assay with Plasmodium falciparum [3] was greater than 30 µg/mL.

For the compound `CSCC[C@H](NC(=O)c1ccc(NCc2cncn2Cc2ccc(-c3ccccc3)cc2)cc1-c1ccccc1)C(=O)O`, the results for the IC50 in assay [1] and in assay [2] were 260 nM and greater than 100000 nM, respectively. Also, the EC50 with Plasmodium falciparum [3] amounted to 5 µg/mL (≈ 8.46 µM). The compound also gave an inhibition at 20 µM in the assay on Plasmodium falciparum [4] of 89.1%.

`N#CCCNC(=O)c1ccc(NCc2cncn2Cc2ccc(C#N)cc2)cc1-c1ccccc1` yielded an IC50 in assay [1] of 220 nM. The EC50 in the assay with Plasmodium falciparum [3] worked out at 10 µg/mL (≈ 21.7 µM).

`CSCC[C@H](NC(=O)c1ccc(CNCc2c[nH]cn2)cc1-c1ccccc1C)C(=O)O`: the IC50 in assay [1] was 1 nM; in assay [2], 200 nM. In the assay with Plasmodium falciparum [3], the EC50 was greater than 30 µg/mL. The inhibition at 20 µM in the assay on Plasmodium falciparum [4] was 0%.

As to `CC(C)NC(=O)c1ccc(NCc2cncn2Cc2ccc(C#N)cc2)cc1-c1ccccc1`, the IC50 in assay [1] is 380 nM; in assay [2], greater than 100000 nM. For the same compound, the EC50 with Plasmodium falciparum [3] was found to be 3 µg/mL (≈ 6.67 µM).

The compound `CSCC[C@H](NC(=O)c1ccc(NCc2cncn2CC2CCCCC2)cc1-c1ccccc1)C(=O)O` returned an IC50 in assay [1] of 41 nM. In the assay with Plasmodium falciparum [3], the EC50 was 10 µg/mL (≈ 19.2 µM). This compound also displayed an inhibition at 20 µM in the assay on Plasmodium falciparum [4] of 72%.

Take `CSCC[C@H](NC(=O)c1ccc(NC[C@@H](N)CS)cc1-c1ccccc1)C(=O)O`: in the assay on Plasmodium falciparum [5], the EC50 was greater than 30 µg/mL.

The record behind these values is ChEMBL document CHEMBL1134231, “Peptidomimetic inhibitors of protein farnesyltransferase show potent antimalarial activity” (Bioorg Med Chem Lett, 2001).
